Measurements from the NIST ThermoML archive (doi:10.1016/j.jct.2005.03.019).
“And” between values parts separate entries of the source, which are not always exact repeats. Equal entries are not always repeated.

Columns and labels:
[1] = refractive index (Na D-line) (dimensionless); details: 101.33 kPa, Liquid, Standard Abbe refractometry
[2] = 101 kPa, Liquid, Vibrating tube method
[3] = xn = mol fraction of the nth substance listed; details: 101 kPa, Liquid, Vibrating tube method

CC1COC(=O)O1 (stereo not drawn) [4-methyl-1,3-dioxolan-2-one]
Details	mass density, 293.15 K [kg/m3]	mass density, 303.15 K [kg/m3]	mass density, 313.15 K	mass density, 323.15 K [kg/m3]	mass density, 333.15 K [kg/m3]	mass density, 343.15 K [kg/m3]	mass density, 353.15 K [kg/m3]	refractive index, 293.15 K
[1]	–	–	–	–	–	–	–	1.42095
[2]	1200.3	1180.6	1161.3 kg/m3 and 1161.2 kg/m3	1142.4	1124	1106	1088.4	–

CC1COC(=O)O1 (stereo not drawn) [4-methyl-1,3-dioxolan-2-one] + C=Cc1ccccc1
[3], x2 = 0
Details	mass density [kg/m3]
293.15 K	1200.3
303.15 K	1180.6
313.15 K	1161.2
333.15 K	1124
343.15 K	1106
353.15 K	1088.4

c1ccccc1 [benzene]
Details	mass density, 293.15 K [kg/m3]	mass density, 303.15 K [kg/m3]	mass density, 313.15 K [kg/m3]	mass density, 323.15 K [kg/m3]	mass density, 333.15 K [kg/m3]	mass density, 343.15 K [kg/m3]	mass density, 353.15 K [kg/m3]	refractive index, 298.15 K
[1]	–	–	–	–	–	–	–	1.5009
[2]	877.8	868	857.9	847.4	836.6	825.4	813.9	–

c1ccccc1 [benzene] + CC1COC(=O)O1
[3], x1 = 1
Details	mass density [kg/m3]
293.15 K	877.8
303.15 K	868
313.15 K	857.9
323.15 K	847.4
333.15 K	836.6
343.15 K	825.4
353.15 K	813.9

CCc1ccccc1 [ethylbenzene]
Details	mass density, 293.15 K [kg/m3]	mass density, 303.15 K [kg/m3]	mass density, 313.15 K [kg/m3]	mass density, 323.15 K [kg/m3]	mass density, 333.15 K [kg/m3]	refractive index, 298.15 K
[1]	–	–	–	–	–	1.4962
[2]	867.8	858.6	851.8	847.6	845.8	–

CCc1ccccc1 [ethylbenzene] + CC1COC(=O)O1
[3], x1 = 1
Details	mass density [kg/m3]
293.15 K	867.8
303.15 K	858.6
313.15 K	851.8
323.15 K	847.6
333.15 K	845.8

C=Cc1ccccc1 [styrene]
Details	mass density, 293.15 K [kg/m3]	mass density, 303.15 K [kg/m3]	mass density, 313.15 K [kg/m3]	mass density, 323.15 K [kg/m3]	mass density, 333.15 K [kg/m3]	mass density, 343.15 K [kg/m3]	mass density, 353.15 K [kg/m3]	refractive index, 298.15 K
[1]	–	–	–	–	–	–	–	1.546
[2]	906	896.4	886.9	877.3	867.8	858.2	848.6	–

Cc1ccccc1 [toluene]
Details	mass density, 293.15 K [kg/m3]	mass density, 303.15 K [kg/m3]	mass density, 313.15 K [kg/m3]	mass density, 323.15 K [kg/m3]	mass density, 333.15 K [kg/m3]	mass density, 343.15 K [kg/m3]	mass density, 353.15 K [kg/m3]	refractive index, 298.15 K
[1]	–	–	–	–	–	–	–	1.4965
[2]	866.8	857.5	848.2	838.9	829.5	820	810.5	–

Cc1ccccc1 [toluene] + CC1COC(=O)O1
[3], x1 = 1
Details	mass density [kg/m3]
293.15 K	866.8
303.15 K	857.5
313.15 K	848.2
323.15 K	838.9
333.15 K	829.5
343.15 K	820
353.15 K	810.5
